Measurements reported in patent US8951529B2, “Methods of using small compounds to enhance myeloid derived suppressor cell function for treating autoimmune diseases” (Icahn School of Medicine at Mount Sinai, priority 2009, dated 2015).

Legend:
[1] = test system: MDSCs; experiment: Treg induction by MDSCs with or without LPS; format: cell-based, mouse; settings: five days, FIG. 9A
Description: Five days later, cells were harvested and stained with anti-CD4-FITC+anti-CD25-APC+anti-Foxp3-PE or isotype controls followed by flow cytometry.

[2] = test system: Gr-1+CD115+ MDSCs; experiment: Prolongation of Treg cell inducing activity of pre-treated MDSCs; format: cell-based, mouse; settings: 96 hours pre-treatment, then 5 days co-culture, FIG. 4B
Description: It was further investigated whether the delay of MDSC differentiation correlated with the prolongation of the Treg cell inducing activity mediated by MDSCs. Purified Gr-1+CD115+ MDSCs from tumor-bearing mice were left non-treated or treated with SP600125, GA, or a combination of both for 0, 48, and 96 hours followed by co-culture with CD4 HA TCR transgenic for an additional 5 days. […] The percentages of Treg cell subpopulations were determined by flow cytometry.
In the absence of treatment with GA or SP00125, the Treg cell inducing activity of MDSCs gradually waned over the period of 4-day culture (FIG. 4B).

[3] = test system: MLN T cells; experiment: MLN cell proliferation assay from IBD mice; format: in vivo, mouse; settings: +PHA, 72 hours, [3H]-thymidine, day 11, DSS-treated mice, FIG. 7
Description: On day 11 after IBD induction, mice were terminated, and MLN cells were isolated and cultured in the presence or absence of PHA. [3H]-thymidine was pulsed during the last 8 hours of 72-hour culture for the measurement of T cell proliferation.
To assess the proliferative capability of T cells from treated mice, on day 11 following IBD induction, splenocytes and […] lymph node (MLN) cells from treated mice were stimulated with (+PHA) or without PHA (˜) for 72 hours. [3H]-thymidine was pulsed during the last 8 hours of 72-hour culture. […] The percentage of Treg cells is defined as the percent cells that are stained positive for CD4, CD25, and intracellular Foxp3.

[4] = test system: CD4+ HA-TCR transgenic splenocytes co-cultured with MDSCs; experiment: IL-17A production by HA-stimulated splenocytes co-cultured with MDSCs (ELISA); format: cell-based, mouse; settings: splenocytes:MDSCs 3:1, HA peptide, five days, FIG. 3B
Description: Because IL-23 (p40/p19) is essential for the Th17 response, the effects of MDSCs, in the presence of GA, SP600125, or both, on IL-17A expression by CD4+ HA-TCR transgenic splenocytes stimulated with HA peptides was determined. Splenocytes from CD4+ HA-TCR transgenic mice were co-cultured with irradiated MDSCs at the ratio of 3:1 in the presence of HA peptide and SP600125, GA, or a combination of both. Five days later, the culture supernatants were collected for the determination of IL-17A concentration by ELISA.

[5] = test system: Gr-1+CD115+ MDSCs; experiment: MDSC differentiation assay (flow cytometry); format: cell-based, mouse; settings: 24 hours culture, FIG. 4A
Description: Gr-1+CD115+ MDSCs were sorted by MACS and cultured in the absence or presence of GA, SP600125, or both. Twenty-four hours later, viable cells were harvested and stained with anti-CD86, anti-CD80, anti-CD11c, anti-I-A, anti-F4/80, or isotype-matched control followed by flow cytometric analysis to assess MDSC differentiation.
To test whether differentiation of MDSCs can be inhibited or retarded by the treatment of GA, SP600125, or both, Gr-1+CD115+ MDSCs were sorted by MACS and cultured in the absence or presence of GA, SP600125, or both. Twenty-four (24) hours later, viable cells were harvested and stained with anti-CD86, anti-CD80, anti-CD11c, anti-I-A, anti-F4/80, or isotype-matched control followed by flow cytometric analysis. […] Treatment with GA or SP600125 impaired the spontaneous differentiation of MDSCs, as evidenced by the lower expressions of CD11c, MHC class II, co-stimulatory molecules, and F4/80.

[6] = test system: IRF-3; settings: MDSCs stimulated with LPS for 2 hours, FIG. 9C
Description: Actin was used as a loading control. Primary antibodies were anti-NFκB, anti-phospho-IRF3 (pIRF3), and anti-β-actin (Cell Signaling Technologies, Danvers, Mass.).

## L-glutamic acid polymer with L-alanine, L-lysine and L-tyrosine, acetate (salt) [GA]
[1]; CD4+ HA TCR splenocytes
  Treg cell induction by MDSCs without LPS: 11.1%
[1]; LPS 100 ng/mL
  Treg cell induction by MDSCs with LPS: 5.31%
[2]
  Treg cell inducing activity of treated MDSCs on day 4: still maintained a significant Treg cell inducing activity
[3]
  T-cell proliferation of MLN cells: lower level
[4]
  IL-17A production: decreased
[5]
  spontaneous differentiation of MDSCs (CD11c, MHC class II, co-stimulatory molecules, F4/80): impaired
[6]
  IRF-3 activation induced by LPS: inhibition
